Laboratory results taken from patent US10653688B2, “6-(6-membered heteroaryl and aryl)isoquinolin-3-yl carboxamides and preparation and use thereof” (Samumed, LLC, priority 2017, dated 2020).
Where two headings read alike, the source gives them in different places.

Experiments:
[1] = test system: LL29 cells (primary human fibroblasts derived from IPF patients), α-smooth muscle actin; assay: Inhibition of fibrotic process: TGF-β1-treated primary human fibroblasts, αSMA staining; assay type: cell-based; settings: Homo sapiens, Fibroblast; for EC50: 96 h, TGF-β1 20 ng/mL, 4 days, % cells positive for αSMA; for inhibition at 10 µM: read-out: percent inhibition at 10 μM (given for EC50 >10 μM), TGF-β1, αSMA, 10 μM;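 as to all read-outs here: controls were TGF-β1-stimulated wells with DMSO vehicle as the positive reference and cells given DMSO alone as the negative reference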
[2] = molecular target: recombinant DYRK1A kinase (Homo sapiens (Human), UniProt Q13627); assay: DYRK1A kinase assay (Ser/Thr 18 peptide Z-lyte, FRET)
Experimental: Each compound was dissolved in DMSO as a 10 mM stock and used to prepare compound source plates.
This is a non-radioactive assay using fluorescence resonance energy transfer (FRET) between coumarin and fluorescein to detect kinase activity which is represented as a ratio of coumarin emission/fluorescein emission.
The mixture was allowed to incubate with the representative compounds for one hour at room temperature. All reactions were performed in duplicate. Unphosphorylated (“0% Control”) and phosphorylated (“100% control”) forms of Ser/Thr 18 served as control reactions. Additionally, an 11-point dose-response curve of Staurosporine (luM top) was run to serve as a positive compound control.
After incubation, Development Reagent A was diluted in Development Buffer then added to the reaction and allowed to further incubate for one hour at room temperature.
Dose-response curves were generated and inhibitory concentration (IC50) values were calculated using non-linear regression curve fit in the Dotmatics' Studies Software (Bishops Stortford, UK).

[3] = test system: Cyclin D1 phosphorylation at Threonine 286 (pCcnD1) over total Cyclin D1 in SH-SY5Y cells; assay: phosphoCcnD1 to total CcnD1 ratio (PTT) cell-based assay, western blot; settings: Homo sapiens, 48 hours
Experimental: Representative compounds were screened using the cell-based assay procedure for the ratio of signal of Cyclin D1 phosphorylation at Threonine 286 (pCcnD1) over the signal of total Cyclin D1 (CcnD1) (abbreviated: phosphoCcnD1 to total CcnD1 ratio, or PTT) as described below.
SH-SY5Y cells (human neuroblastoma, Sigma, Saint-Louis, Mo.) were cultured in 1:1 DMEM/F-12 medium supplemented with 15% FBS, 1% non-essential amino acid, and 1% penicillin/streptomycin.
SH-SY5Y cells were seeded at 1.0×10^5 cells in 1 mL per well in a 24-well plate. After cell adherence was confirmed, DMSO-resuspended Samumed compounds were dispensed to eight wells as a serial dilution from 10 μM to 4.6 nM final concentration in medium, or at 1.1 μM to 4.6 nM with particularly potent compounds. Cells were exposed to Samumed compounds for 48 hours in a 37° C. incubator.
Wells of compound-treated cells were visually checked for cell death before being washed with 500 μL per well of 1×DPBS supplemented with phosphatase inhibitor diluted to 1×. Cells were then lysed with 90 μL 1×RIPA buffer supplemented with phosphatase and protease inhibitors (each diluted to a final 1×). After scraping, 60 μL of cell lysate from each sample was used to dilute 4×LDS (ThermoFisher, NP0007) and 20×XT reducing agent (Bio-Rad, 1610792), each diluted to 1× final. All samples were then denatured via boiling at 95° C. Denatured cell sample lysates were directly tested for pCcnD1 and total CcnD1 signal by Western blot techniques and analysis. Specifically, denatured lysates were directly transferred to NuPAGE™ 4-12% Bis-Tris Midi Protein Gels, 26-well gels (ThermoFisher, WG1403BOX). Gels were transferred to […] nitrocellulose membranes via iBlot™ Transfer Stack, nitrocellulose, regular size (ThermoFisher, IB301031). Membranes were blocked with 1×TBS, 5% milk (Bio-Rad, 1706404XTU) before being probed for overnight with either anti-pCcnD1 primary antibody (Cell Signaling Technology, 2978S) or anti-total CcnD1 primary antibody (Cell Signaling Technology, 3300S) diluted 1:500 in 1×TBS-0.05% Tween-20, 3% milk. After overnight incubation in primary antibodies, membranes were washed profusely with 1×TBS-0.05% Tween-20 and probed for 1 hour with secondary anti-rabbit/HRP conjugate (Cell Signaling Technology, 7074S) diluted 1:1000 in 1×TBS-0.05% Tween-20, 3% milk. After incubation in secondary antibody, membranes were washed with 1×TBS-0.05% Tween-20.
Probed and washed membranes were developed for pCcnD1 or total CcnD1 signal with SuperSignal™ West Femto Maximum Sensitivity Substrate (ThermoFisher, 34096) using the ChemoDoc-It^2 (UVP) and related GelDocIt imaging software. Blots were then stripped, blocked, stained with anti-β-actin/HRP conjugate antibody (Cell Signaling Technology, 5125S), developed, and imaged for housekeeping β-actin protein control as previously described. Densitometry was measured with ImageJ (NIH) and signal was used to plot, draw the curves fitting, and determine the EC50 values in GraphPad Prism for tested Samumed compounds.

[4] = molecular target: recombinant GSK3β kinase (Homo sapiens (Human), UniProt P49841); assay: GSK3β kinase assay (Ser/Thr 09 peptide Z-lyte, FRET); assay type: biochemical;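 also: FRET read-out as coumarin over fluorescein emission ratio, compounds incubated one hour at room temperature, IC50 from dose-response curve fit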
Chain of recombinant GSK3β kinase (P49841 whole entry): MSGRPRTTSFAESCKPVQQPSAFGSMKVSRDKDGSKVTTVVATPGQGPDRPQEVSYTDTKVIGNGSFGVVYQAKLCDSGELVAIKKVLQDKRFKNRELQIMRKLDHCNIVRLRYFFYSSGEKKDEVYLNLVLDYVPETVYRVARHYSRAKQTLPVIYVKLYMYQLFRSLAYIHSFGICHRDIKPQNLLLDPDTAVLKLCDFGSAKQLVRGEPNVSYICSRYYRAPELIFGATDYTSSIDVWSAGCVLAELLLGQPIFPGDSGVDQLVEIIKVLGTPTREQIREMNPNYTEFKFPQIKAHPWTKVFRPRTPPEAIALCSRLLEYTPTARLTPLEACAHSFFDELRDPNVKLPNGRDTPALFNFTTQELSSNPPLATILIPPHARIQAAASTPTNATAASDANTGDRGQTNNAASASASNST

[5] = test system: secreted cytokines TNFα, IL-6 and KC-GRO in BV-2 cells (mouse microglial cells); assay: Secreted cytokines in lipopolysaccharide-stimulated mouse glial cell line; assay type: cell-based; settings: LPS 250 ng/mL 5 hours, table does not say which cytokine
Procedure, shortened: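 BV-2 cells seeded at 35,000/well were pretreated overnight with compound (10 μM to 4.6 nM final), then stimulated 5 h with 250 ng/mL E. coli O111:B4 LPS. Supernatant TNFα, IL-6 and KC-GRO were quantified by electrochemiluminescence against standard curves (pg/mL) to fit EC50. Cytotoxicity was checked by CellTiter-Glo ATP read-out.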

[6] = test system: Wnt activity (SW480 colon carcinoma cells stably expressing the Sp5-Luc reporter gene); assay: Wnt activity screening assay (Sp5-Luc reporter gene assay); assay type: cell-based, human; settings: Homo sapiens; for EC50: 36 to 48 hours; for inhibition at 10 µM: read-out: percent inhibition at 10 μM (given for EC50 >10 μM), 10 μM
Procedure, shortened: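 EC50 values come from a variable-slope four-parameter fit of luminescence normalized to DMSO-only wells. The read-out follows 36–48 h incubation at 37 °C, 5% CO2, in DMEM containing 1% fetal bovine serum. Cells are hygromycin-selected SW480 stably expressing firefly luciferase under a Wnt-responsive Sp5 promoter (eight TCF/LEF sites).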

[7] = DYRK1A kinase, head says EC50, method says IC50, ATP 30 μM
[8] = GSK3β kinase, head says EC50, method says IC50, ATP 46 μM

Row | EC50 [2, 7] | EC50 [3] | EC50 [4, 8] | EC50 [5] | EC50 [6] | EC50 [2] | EC50 [4] | Structure (SMILES) | EC50 [1] | inhibition at 10 µM [6] | inhibition at 10 µM [1]
1 | 14 nM | > 10000 nM | > 10000 nM | 6080 nM | 3150 nM | – | – | CN1CCN(c2cc(C(=O)Nc3cc4cc(-c5cnc6ocnc6c5)ccc4cn3)ccn2)CC1 [Compound 132, 2-(4-Methylpiperazin-1-yl)-N-(6-(oxazolo[5,4-b]pyridin-6-yl)isoquinolin-3-yl)isonicotinamide] | 1350 nM | – | –
2 | 13 nM | 48 nM | 2890 nM | 157 nM | > 10000 nM | – | – | CN1CCN(CC(=O)Nc2cc3cc(-c4cccnc4)c(F)cc3cn2)CC1 [Compound 145, N-(7-Fluoro-6-(pyridin-3-yl)isoquinolin-3-yl)-2-(4-methylpiperazin-1-yl) acetamide] | 6520 nM | 26.2% | –
3 | 9 nM | 68 nM | 623 nM | 201 nM | > 10000 nM | – | – | Cc1cncc(-c2ccc3cnc(NC(=O)CN4CCOCC4)cc3c2)c1 [Compound 146, N-(6-(5-Methylpyridin-3-yl)isoquinolin-3-yl)-2-morpholinoacetamide] | > 10000 nM | 38.5% | 23.8%
4 | – | 16 nM | – | 198 nM | > 10000 nM | 13 nM | 795 nM | [2H]C1([2H])OC([2H])([2H])C([2H])([2H])N(CC(=O)Nc2cc3cc(-c4cccnc4)ccc3cn2)C1([2H])[2H] [Compound 151, 2-(Morpholino-d8)-N-(6-(pyridin-3-yl)isoquinolin-3-yl)acetamide] | > 10000 nM | 10.7% | 21.2%

Further lines, the compound ahead of its results:

Row | Structure (SMILES) | EC50 [2, 7] | EC50 [3] | EC50 [4, 8] | EC50 [5] | EC50 [6] | EC50 [2] | EC50 [4] | EC50 [1] | inhibition at 10 µM [6] | inhibition at 10 µM [1]
5 | O=C(Nc1cc2cc(-c3cncc(NC4CCNCC4)n3)ccc2cn1)C1CCOCC1 [Compound 109, N-(6-(6-(Piperidin-4-ylamino)pyrazin-2-yl)isoquinolin-3-yl)tetrahydro-2H-pyran-4-carboxamide] | 2 nM | 412 nM | 264 nM | 211 nM | 738 nM | – | – | 27 nM | – | –
6 | Cc1cc2ncc(-c3ccc4cnc(NC(=O)c5ccnc(N6CCN(C)CC6)c5)cc4c3)cc2[nH]1 [Compound 135, N-(6-(2-Methyl-1H-pyrrolo[3,2-b]pyridin-6-yl)isoquinolin-3-yl)-2-(4-methylpiperazin-1-yl)isonicotinamide] | 15 nM | 37 nM | > 10000 nM | 2240 nM | 2590 nM | – | – | 2480 nM | – | –
7 | O=C(CN1CCOCC1)Nc1cc2cc(-c3cccnc3)c(F)cc2cn1 [Compound 144, N-(7-Fluoro-6-(pyridin-3-yl)isoquinolin-3-yl)-2-morpholinoacetamide] | 9 nM | 298 nM | 1250 nM | 157 nM | > 10000 nM | – | – | 4600 nM | 23% | –
8 | COc1cncc(-c2ccc3cnc(NC(=O)CN4CCOCC4)cc3c2)c1 [Compound 147, N-(6-(5-Methoxypyridin-3-yl)isoquinolin-3-yl)-2-morpholinoacetamide] | 20 nM | 359 nM | 1020 nM | 628 nM | > 10000 nM | – | – | > 10000 nM | 38.8% | 24.4%
